Legend:
Type in all cases: cell-based, human
786-0 = test system: 786-0
In short: (§1)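 Concentrations tested in the NCI-60 panel were 0.01, 0.1, 1, 10 and 100 μM. The endpoint taken forward was TGI, whose pattern across lines was run through COMPARE alongside earlier tubulin inhibitors.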

ACHN = test system: ACHN
In short: (§2)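 Each atropisomer and iso-atropisomer was submitted to the NCI screen and run at five tenfold dilutions from 100 μM down to 0.01 μM.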

CAKI-1 = test system: CAKI-1
In short: as §1

HCC-2998 = test system: HCC-2998
In short: as §1

HL-60(TB) = test system: HL-60(TB)
In short: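 Tested in five doses (top 100 μM, lowest 0.01 μM) within the 60 Cell Screen; COMPARE used TGI responses relative to known tubulin inhibitors.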

HOP-92 = test system: HOP-92
In short: as §1

LOX IMVI = test system: LOX IMVI
In short: as §2

MALME-3M = test system: MALME-3M
In short: as §1

MCF7 = test system: MCF7
In short: as §1

MDA-MB-231/ATCC = test system: MDA-MB-231/ATCC
In short: as §1

MDA-MB-435 = test system: MDA-MB-435
In short: as §2

MDA-MB-468 = test system: MDA-MB-468
In short: as §1

NCI 60 cell lines = test system: NCI 60 cell lines
In short: as §1

NCI-H226 = test system: NCI-H226
In short: as §1

NCI-H23 = test system: NCI-H23
In short: as §1

NCI/ADR-RES = test system: NCI/ADR-RES
In short: as §1

OVCAR-4 = test system: OVCAR-4
In short: as §1

OVCAR-8 = test system: OVCAR-8
In short: as §1

RPMI-8226 = test system: RPMI-8226
In short: as §1

SK-MEL-2 = test system: SK-MEL-2
In short: as §1

SK-MEL-5 = test system: SK-MEL-5
In short: as §1

SN12C = test system: SN12C
In short: as §1

SNB-19 = test system: SNB-19
In short: as §2

T-47D = test system: T-47D
In short: as §1

U251 = test system: U251
In short: as §1

UACC-257 = test system: UACC-257
In short: as §1

**Q.** Which Log10GI50 (786-0) does the source give for `COc1cc(C)c(-c2ccc(OC)c(=O)cc2C)c(OC)c1OC` (single isomer, unassigned) [(aS)-6] here?
**A.** > -4.00 Molar

**Q.** What about the Log10LC50 (786-0) of the same compound?
**A.** > -4.00 Molar

**Q.** And the Log10TGI (786-0)?
**A.** > -4.00 Molar

**Q.** And the Log10GI50 (ACHN)?
**A.** > -4.00 Molar

**Q.** And the Log10LC50 (ACHN)?
**A.** > -4.00 Molar

**Q.** What about the Log10TGI (ACHN) of the same compound?
**A.** > -4.00 Molar

**Q.** And the Log10GI50 (CAKI-1)?
**A.** > -4.00 Molar

**Q.** What about the Log10LC50 (CAKI-1) of the same compound?
**A.** > -4.00 Molar

**Q.** And the Log10TGI (CAKI-1)?
**A.** > -4.00 Molar

**Q.** What about the Log10GI50 (HCC-2998) of the same compound?
**A.** > -4.00 Molar

**Q.** And the Log10LC50 (HCC-2998)?
**A.** > -4.00 Molar

**Q.** And the Log10TGI (HCC-2998)?
**A.** > -4.00 Molar

**Q.** What about the Log10GI50 (HL-60(TB)) of the same compound?
**A.** > -4.00 Molar

**Q.** And the Log10LC50 (HL-60(TB))?
**A.** > -4.00 Molar

**Q.** What about the Log10TGI (HL-60(TB)) of the same compound?
**A.** > -4.00 Molar

**Q.** What about the Log10GI50 (HOP-92) of the same compound?
**A.** -4.65 Molar

**Q.** And the Log10LC50 (HOP-92)?
**A.** > -4.00 Molar

**Q.** And the Log10TGI (HOP-92)?
**A.** > -4.00 Molar

**Q.** What about the Log10GI50 (LOX IMVI) of the same compound?
**A.** > -4.00 Molar

**Q.** What about the Log10LC50 (LOX IMVI) of the same compound?
**A.** > -4.00 Molar

**Q.** What about the Log10TGI (LOX IMVI) of the same compound?
**A.** > -4.00 Molar

**Q.** And the Log10GI50 (MALME-3M)?
**A.** > -4.00 Molar

**Q.** And the Log10LC50 (MALME-3M)?
**A.** > -4.00 Molar

**Q.** And the Log10TGI (MALME-3M)?
**A.** > -4.00 Molar

**Q.** And the Log10GI50 (MCF7)?
**A.** > -4.00 Molar

**Q.** What about the Log10LC50 (MCF7) of the same compound?
**A.** > -4.00 Molar

**Q.** What about the Log10TGI (MCF7) of the same compound?
**A.** > -4.00 Molar

**Q.** What about the Log10GI50 (MDA-MB-231/ATCC) of the same compound?
**A.** > -4.00 Molar

**Q.** And the Log10LC50 (MDA-MB-231/ATCC)?
**A.** > -4.00 Molar

**Q.** What about the Log10TGI (MDA-MB-231/ATCC) of the same compound?
**A.** > -4.00 Molar

**Q.** What about the Log10GI50 (MDA-MB-435) of the same compound?
**A.** -4.14 Molar

**Q.** And the Log10LC50 (MDA-MB-435)?
**A.** > -4.00 Molar

**Q.** What about the Log10TGI (MDA-MB-435) of the same compound?
**A.** > -4.00 Molar

**Q.** And the Log10GI50 (MDA-MB-468)?
**A.** -4.20 Molar

**Q.** And the Log10LC50 (MDA-MB-468)?
**A.** > -4.00 Molar

**Q.** And the Log10TGI (MDA-MB-468)?
**A.** > -4.00 Molar

**Q.** What about the “cytotoxicity at the highest concentration tested” value (NCI 60 cell lines; 100 μM) of the same compound?
**A.** not cytotoxic

**Q.** And the “Log10 Range at TGI” value (NCI 60 cell lines; NCI-60 cell line selectivity, listed as (aS)-DM-MTC (6))?
**A.** 0

**Q.** And the “Mean TGI” value (NCI 60 cell lines; NCI-60 mean total growth inhibition, listed as (aS)-DM-MTC (6))?
**A.** > 100 µM

**Q.** And the GI50 (NCI 60 cell lines; NCI-60 mean, listed as (aS)-DM-MTC (6))?
**A.** > 100 µM

**Q.** What about the “Delta Log10GI50” value (NCI 60 cell lines; mean graph) of the same compound?
**A.** 0.63

**Q.** And the “Delta Log10LC50” value (NCI 60 cell lines; mean graph)?
**A.** 0

**Q.** And the “Delta Log10TGI” value (NCI 60 cell lines; mean graph)?
**A.** 0

**Q.** What about the “Range Log10GI50” value (NCI 60 cell lines; mean graph) of the same compound?
**A.** 0.65

**Q.** What about the “Range Log10LC50” value (NCI 60 cell lines; mean graph) of the same compound?
**A.** 0.0

**Q.** And the “Range Log10TGI” value (NCI 60 cell lines; mean graph)?
**A.** 0.0

**Q.** What about the “_MID Log10GI50” value (NCI 60 cell lines; mean graph midpoint) of the same compound?
**A.** -4.02 Molar

**Q.** What about the “_MID Log10LC50” value (NCI 60 cell lines; mean graph midpoint) of the same compound?
**A.** -4.0 Molar

**Q.** And the “_MID Log10TGI” value (NCI 60 cell lines; mean graph midpoint)?
**A.** -4.0 Molar

**Q.** And the Log10GI50 (NCI-H226)?
**A.** > -4.00 Molar

**Q.** What about the Log10LC50 (NCI-H226) of the same compound?
**A.** > -4.00 Molar

**Q.** What about the Log10TGI (NCI-H226) of the same compound?
**A.** > -4.00 Molar

**Q.** What about the Log10GI50 (NCI-H23) of the same compound?
**A.** > -4.00 Molar

**Q.** What about the Log10LC50 (NCI-H23) of the same compound?
**A.** > -4.00 Molar

**Q.** What about the Log10TGI (NCI-H23) of the same compound?
**A.** > -4.00 Molar

**Q.** And the Log10GI50 (NCI/ADR-RES)?
**A.** > -4.00 Molar

**Q.** What about the Log10LC50 (NCI/ADR-RES) of the same compound?
**A.** > -4.00 Molar

**Q.** And the Log10TGI (NCI/ADR-RES)?
**A.** > -4.00 Molar

**Q.** And the Log10GI50 (OVCAR-4)?
**A.** > -4.00 Molar

**Q.** And the Log10LC50 (OVCAR-4)?
**A.** > -4.00 Molar

**Q.** And the Log10TGI (OVCAR-4)?
**A.** > -4.00 Molar

**Q.** And the Log10GI50 (OVCAR-8)?
**A.** > -4.00 Molar

**Q.** And the Log10LC50 (OVCAR-8)?
**A.** > -4.00 Molar

**Q.** And the Log10TGI (OVCAR-8)?
**A.** > -4.00 Molar

**Q.** And the Log10GI50 (RPMI-8226)?
**A.** > -4.00 Molar

**Q.** And the Log10LC50 (RPMI-8226)?
**A.** > -4.00 Molar

**Q.** And the Log10TGI (RPMI-8226)?
**A.** > -4.00 Molar

**Q.** What about the Log10GI50 (SK-MEL-2) of the same compound?
**A.** > -4.00 Molar

**Q.** What about the Log10LC50 (SK-MEL-2) of the same compound?
**A.** > -4.00 Molar

**Q.** What about the Log10TGI (SK-MEL-2) of the same compound?
**A.** > -4.00 Molar

**Q.** And the Log10GI50 (SK-MEL-5)?
**A.** > -4.00 Molar

**Q.** And the Log10LC50 (SK-MEL-5)?
**A.** > -4.00 Molar

**Q.** What about the Log10TGI (SK-MEL-5) of the same compound?
**A.** > -4.00 Molar

**Q.** What about the Log10GI50 (SN12C) of the same compound?
**A.** > -4.00 Molar

**Q.** And the Log10LC50 (SN12C)?
**A.** > -4.00 Molar

**Q.** And the Log10TGI (SN12C)?
**A.** > -4.00 Molar

**Q.** What about the Log10GI50 (SNB-19) of the same compound?
**A.** > -4.00 Molar

**Q.** And the Log10LC50 (SNB-19)?
**A.** > -4.00 Molar

**Q.** What about the Log10TGI (SNB-19) of the same compound?
**A.** > -4.00 Molar

**Q.** And the Log10GI50 (T-47D)?
**A.** > -4.00 Molar

**Q.** What about the Log10LC50 (T-47D) of the same compound?
**A.** > -4.00 Molar

**Q.** And the Log10TGI (T-47D)?
**A.** > -4.00 Molar

**Q.** And the Log10GI50 (U251)?
**A.** > -4.00 Molar

**Q.** What about the Log10LC50 (U251) of the same compound?
**A.** > -4.00 Molar

**Q.** And the Log10TGI (U251)?
**A.** > -4.00 Molar

**Q.** And the Log10GI50 (UACC-257)?
**A.** > -4.00 Molar

**Q.** And the Log10LC50 (UACC-257)?
**A.** > -4.00 Molar

**Q.** What about the Log10TGI (UACC-257) of the same compound?
**A.** > -4.00 Molar

Source: paper PMC12150326 (The Journal of Organic Chemistry, 2025)
